The structures appear in SMILES notation. ≈ marks a conversion by molar mass, not a printed value. Where two headings read alike, the source gives them in different places. Bounds are passed on as bounds.

Results on seven molecules are retold here after PMC6017406, “Synthesis and Physicochemical Evaluation of Entecavir-Fatty Acid Conjugates in Reducing Food Effect on Intestinal Absorption” (Molecules : A Journal of Synthetic Chemistry and Natural …, 2018).

A short description of series [1]: Equilibrium solubility in biorelevant media. The series is classed as physicochemical. The settings on record: for solubility thermodynamic at 3 days: thermodynamic from solid, mean ± SD (n = 3). The method, then: The equilibrium solubilities of lipidic prodrugs in biorelevant media such as FaSSGF, FeSSGF, FaSSIF, and FeSSIF [32, 33] were assessed. FaSSGF was prepared with 0.08 mM of sodium taurocholate, 0.02 mM of lecithin, and 34.2 mM of NaCl in 1000 mL of distilled water (pH 1.6). FaSSIF was prepared with 3 mM of sodium taurocholate, 0.2 mM of lecithin, 19.1 mM of malate, 68.62 mM of NaCl, and 34.8 mM of NaOH in 1000 mL of distilled water (pH 6.5, osmolality: 270 mOsm∙kg^−1). FeSSGF was prepared with 230.0 mM of NaCl, 17.1 mM of acetic acid, and 29.75 mM of sodium acetate, in 1000 mL of mixture of milk (full fat 3.5%) and distilled water (pH 5.0, osmolality: 400 mOsm∙kg^−1). FeSSIF was prepared with 10 mM of sodium taurocholate, 2 mM of lecithin, 5 mM of glyceryl monooleate, 0.8 mM of sodium oleate, 55.0 mM of malate, 125.5 mM of NaCl, and 81.6 mM of NaOH in 1000 mL of distilled water (pH 5.8, osmolality: 390 mOsm∙kg^−1).
An excess amount of drug (500 mg) was added to biorelevant media in a scintillation vial. Drug suspensions were sonicated for 30 min and then shaken at 37 °C for 3 days using a shaking incubator. Samples were then centrifuged at 13,000 rpm for 10 min and the supernatant was appropriately diluted with mobile phase. The concentration of EV-FA in the medium was analyzed using HPLC as described above.

On the set-up of series [2]: method as in earlier work. The following applies: oral 0.5 mg with high-fat meal (945 kcal, 54.6 g fat); cited from earlier work.
On the set-up of series [3]: method as in PMID 27503646. The following applies: cited from earlier work.
The nature of series [4]: In vitro dissolution test in biorelevant media (USP 29 paddle method). Type of series: physicochemical. The method, then: The United States Pharmacopeia 29 paddle method was used to assess the release profile of EV-C12 powder using a VK 7000 dissolution tester (Varian Medical Industries, Palo Alto, CA, USA). The EV-FA powder equivalent to 0.5 mg of the parent compound was immersed in 900 mL of biorelevant media maintained at 37 °C ± 0.1 °C at a paddle speed of 50 rpm. At fixed time intervals, aliquots (about 4 mL) were drawn and centrifuged at 13,000 rpm for 10 min. An equal volume of the test medium pre-warmed at 37 °C ± 0.1 °C was used for immediate replacement. The supernatant was appropriately diluted with methanol and the drug concentration in the supernatant was assayed by HPLC, as described earlier.

Series [5] can be described thus: Hydrolysis in simulated gastric fluid (pH 1.2). The settings on record: simulated gastric fluid pH 1.2, 37 °C, after 12 h, 20 μg/mL. Type of series: physicochemical. The method, then:
To estimate the chemical stability of these synthesized ester prodrugs in the stomach, their hydrolysis behavior was evaluated in simulated gastric fluid (pH 1.2). Each compound (10 mg) was dissolved in ethanol (10 mL) and then serially diluted with simulated gastric fluid at a drug concentration of 20 μg/mL. […]

On the set-up of series [6]: method as in PMID 14498759. The settings on record: humans; cited from earlier work.
Where [7] appears, read: fassgf or other biorelevant, FaSSGF pH 1.6, 37 °C, read-out: Equilibrium solubility FaSSGF.
[8] abbreviates: fassgf or other biorelevant, FeSSGF pH 5.0, 37 °C, read-out: Equilibrium solubility FeSSGF.
The mark [9] stands for this setting: FaSSIF pH 6.5, 37 °C, read-out: Equilibrium solubility FaSSIF.
[10] abbreviates: FeSSIF pH 5.8, 37 °C, read-out: Equilibrium solubility FeSSIF.
[11] abbreviates: all biorelevant media, 37 °C, 50 rpm.

In the case of `C=C1[C@H](CO)[C@@H](O)C[C@@H]1n1cnc2c(=O)nc(N)[nH]c21` [EV, 2-amino-9-[(1S,3R,4S)-4-hydroxy-3-(hydroxymethyl)-2-methylidenecyclopentyl]-3H-purin-6-one, reference compound], the solubility at 3 days in series [1] (biorelevant media (FaSSGF, fassgf or other biorelevant, thermodynamic from solid), FaSSGF, FaSSIF, FeSSGF, FeSSIF, 37 °C, read-out: Aqueous solubility in all media tested) was over 1.6 mg/mL. Also, the solubility thermodynamic at 3 days in series [1] (setting [7]) was 8.94 ± 0.092 mg/mL (≈ 32200 µM); in series [1] (setting [8]), 2.152 ± 0.013 mg/mL (≈ 7760 µM); in series [1] (setting [9]), 1.62 ± 0.023 mg/mL (≈ 5860 µM); in series [1] (setting [10]), 2.24 ± 0.052 mg/mL (≈ 8080 µM). In addition, in series [2], the “Decrease in maximum drug concentration in plasma” value is 44–46%. The pKa in series [3] is listed as 10.5. Further, the Solubility in series [3] (distilled water at 25 °C) is on record as 2.4 mg/mL (≈ 8660 µM). In addition, in series [3] (pH 4 to 10), the logP is recorded as −1.110. For the same molecule, in series [4] (all biorelevant media (FaSSGF, FaSSIF, FeSSGF, FeSSIF), 37 °C, 50 rpm), the “Time to complete release” value was at most 15 min.

Take `C=C1[C@H](COC(=O)CCCCC)[C@@H](O)C[C@@H]1n1cnc2c(=O)[nH]c(N)nc21` [EV-C6, (1R,3S,5S)-3-(2-Amino-6-oxo-1H-purin-9(6H)-yl)-5-hydroxy-2-methylenecyclopentyl)methyl hexanoate]: in series [5], the Hydrolyzed percentage is on record as 59.1%. Also, the solubility thermodynamic at 3 days came to 0.00484 ± 0.0005 mg/mL (≈ 12.9 µM) in series [1] (setting [7]), 0.0249 ± 0.0014 mg/mL (≈ 66.3 µM) in series [1] (setting [8]), 0.00554 ± 0.0006 mg/mL (≈ 14.8 µM) in series [1] (setting [9]) and 0.0252 ± 0.0023 mg/mL (≈ 67.1 µM) in series [1] (setting [10]).

For `C=C1[C@H](COC(=O)CCCCCCC)[C@@H](O)C[C@@H]1n1cnc2c(=O)[nH]c(N)nc21` [EV-C8, ((1R,3S,5S)-3-(2-Amino-6-oxo-1H-purin-9(6H)-yl)-5-hydroxy-2-methylenecyclopentyl)methyl octanoate], the Hydrolyzed percentage in series [5] is 46.2%. Also, the solubility thermodynamic at 3 days in series [1] (setting [7]) stood at 0.00474 ± 0.0003 mg/mL (≈ 11.7 µM); in series [1] (setting [8]), 0.0382 ± 0.0015 mg/mL (≈ 94.7 µM); in series [1] (setting [9]) it was 0.00574 ± 0.0003 mg/mL (≈ 14.2 µM); in series [1] (setting [10]) it was 0.0367 ± 0.0012 mg/mL (≈ 91 µM).

The molecule `C=C1[C@H](COC(=O)CCCCCCCCC)[C@@H](O)C[C@@H]1n1cnc2c(=O)[nH]c(N)nc21` [EV-C10, ((1R,3S,5S)-3-(2-Amino-6-oxo-1H-purin-9(6H)-yl)-5-hydroxy-2-methylenecyclopentyl)methyl decanoate] gave a Hydrolyzed percentage in series [5] of 44.4%. For the same molecule, the solubility thermodynamic at 3 days in series [1] (setting [7]) was determined as 0.00441 ± 0.0001 mg/mL (≈ 10.2 µM); in series [1] (setting [8]) it was 0.0619 ± 0.0032 mg/mL (≈ 143 µM); in series [1] (setting [9]), 0.00647 ± 0.0006 mg/mL (≈ 15 µM); in series [1] (setting [10]), 0.0666 ± 0.0044 mg/mL (≈ 154 µM).

Turning to `C=C1[C@H](COC(=O)CCCCCCCCCCC)[C@@H](O)C[C@@H]1n1cnc2c(=O)[nH]c(N)nc21` [EV-C12, ((1R,3S,5S)-3-(2-Amino-6-oxo-1H-purin-9(6H)-yl)-5-hydroxy-2-methylenecyclopentyl)methyl dodecanoate], the Hydrolyzed percentage in series [5] is listed as 22.5%. Further, the solubility thermodynamic at 3 days was found to be 0.00482 ± 0.0002 mg/mL (≈ 10.5 µM) in series [1] (setting [7]), 0.0766 ± 0.004 mg/mL (≈ 167 µM) in series [1] (setting [8]), 0.0065 ± 0.0002 mg/mL (≈ 14.1 µM) in series [1] (setting [9]) and 0.0788 ± 0.0077 mg/mL (≈ 171 µM) in series [1] (setting [10]). Besides, the “Percent released within 30 min” value in series [4] (setting [11]) is “more than 50%”. Further, in series [4] (setting [11]), the “Percent released/dissolved within 2 h” value was “more than 90%”. The “Concentration of EV in dissolution medium formed by hydrolysis of the lipidic compound” value in series [4] (all media) is given as “less than 1%”. In addition, the “Release rate constant (Hixon-Crowell cube-root model)” value in series [4] (fourth medium listed (presumably FeSSIF), r^2 = 0.933) turned out to be 0.053 mg^1/3/h; in series [4] (second medium listed (presumably FaSSIF), r^2 = 0.914), 0.036 mg^1/3/h; in series [4] (third medium listed (presumably FeSSGF), r^2 = 0.879), 0.048 mg^1/3/h.

In the case of `CC(C)(C)C(=O)OCOP(=O)(COCCn1cnc2c(N)ncnc21)OCOC(=O)C(C)(C)C` [adefovir dipivoxil], the Oral bioavailability in series [6] is on record as 59%.

Turning to `Nc1ncnc2c1ncn2CCOCP(=O)(O)O` [hydrophilic parent compound], the Oral bioavailability in series [6] is on record as 12%.

As a reminder, the solubility is how much of the substance goes into solution per volume. What is called pKa is the pH at which an ionisable group is half protonated. What is called Solubility is how much of the substance goes into solution per volume. Broadly, the logP is a log measure of how a compound divides between an organic and an aqueous phase.
